According to patent publication US20240002374A1, “5-MEMBERED HETEROARYLAMINOSULFONAMIDES FOR TREATING CONDITIONS MEDIATED BY DEFICIENT CFTR ACTIVITY” (Genzyme Corporation, priority 2019, published 2024):

The molecules below were run against T1, CFTR (primary human bronchial epithelial cells from a ΔF508 homozygous CF donor, CF-HBE cells) (Homo sapiens, UniProt P13569, DEL508-508) (assay: TECC24 recording of CFTR-mediated transepithelial chloride transport (TECC24 AUC fold over DMSO @ 3 μM)). Settings: 3 uM test agent; CF-HBE cells (ΔF508 homozygous) incubated 48 h; ratio of test agent AUC of forskolin-stimulated IEQ to vehicle (DMSO) AUC.
T1 construct: Primary human bronchial epithelial cells from a ΔF508 homozygous CF donor; host or cells: primary human bronchial epithelial cells (CF-HBE) from a ΔF508 homozygous CF donor
T1 sequence (P13569 with tags, fused parts or gaps DEL508-508): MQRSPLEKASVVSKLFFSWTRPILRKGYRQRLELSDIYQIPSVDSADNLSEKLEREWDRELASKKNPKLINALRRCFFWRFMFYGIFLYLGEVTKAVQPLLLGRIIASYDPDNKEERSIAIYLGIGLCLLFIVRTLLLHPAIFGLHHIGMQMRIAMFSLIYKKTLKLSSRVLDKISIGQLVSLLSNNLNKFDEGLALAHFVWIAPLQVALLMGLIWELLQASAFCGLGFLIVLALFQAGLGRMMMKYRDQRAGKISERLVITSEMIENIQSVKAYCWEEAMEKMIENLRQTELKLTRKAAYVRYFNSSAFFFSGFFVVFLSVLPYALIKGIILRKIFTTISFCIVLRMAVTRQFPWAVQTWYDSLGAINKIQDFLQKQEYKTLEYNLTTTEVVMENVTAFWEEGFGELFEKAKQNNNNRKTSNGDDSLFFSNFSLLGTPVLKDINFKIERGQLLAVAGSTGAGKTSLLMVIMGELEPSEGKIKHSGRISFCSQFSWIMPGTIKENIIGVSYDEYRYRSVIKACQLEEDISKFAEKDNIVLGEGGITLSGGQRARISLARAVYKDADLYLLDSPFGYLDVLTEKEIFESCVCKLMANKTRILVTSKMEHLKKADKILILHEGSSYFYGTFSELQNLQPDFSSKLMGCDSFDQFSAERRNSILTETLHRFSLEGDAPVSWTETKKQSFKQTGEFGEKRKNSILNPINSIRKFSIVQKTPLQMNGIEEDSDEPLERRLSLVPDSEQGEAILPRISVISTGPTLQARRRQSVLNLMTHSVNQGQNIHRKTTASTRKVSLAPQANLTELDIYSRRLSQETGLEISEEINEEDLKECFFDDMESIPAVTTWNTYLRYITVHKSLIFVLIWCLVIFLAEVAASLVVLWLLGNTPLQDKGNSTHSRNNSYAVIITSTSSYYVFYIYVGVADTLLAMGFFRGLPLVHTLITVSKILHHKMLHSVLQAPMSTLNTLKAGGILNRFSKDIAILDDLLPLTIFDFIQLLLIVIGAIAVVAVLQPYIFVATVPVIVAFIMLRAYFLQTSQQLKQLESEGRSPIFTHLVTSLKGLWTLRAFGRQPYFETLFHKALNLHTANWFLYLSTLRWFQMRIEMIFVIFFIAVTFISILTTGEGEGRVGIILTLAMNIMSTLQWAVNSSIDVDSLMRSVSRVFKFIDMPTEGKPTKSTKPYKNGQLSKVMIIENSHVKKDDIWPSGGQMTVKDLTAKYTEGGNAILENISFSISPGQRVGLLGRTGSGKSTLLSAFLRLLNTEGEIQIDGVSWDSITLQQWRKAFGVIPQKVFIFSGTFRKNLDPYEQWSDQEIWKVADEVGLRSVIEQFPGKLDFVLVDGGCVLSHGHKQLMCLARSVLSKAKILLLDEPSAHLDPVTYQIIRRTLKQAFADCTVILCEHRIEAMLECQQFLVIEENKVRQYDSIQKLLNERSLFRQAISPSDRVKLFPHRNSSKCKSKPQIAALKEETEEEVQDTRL
Assay type: cell-based
Description: Example 510: TECC24 AUC Fold Over DMSO @ 3 μM
The effects of a test agent on CFTR-mediated transepithelial chloride transport was measured using TECC24 recording analysis. Test agents were solubilized in DMSO. Solubilized test agents were mixed with incubation medium containing DMEM/F12, Ultroser G (2%; Crescent Chemical, catalog #67042), Hyclone Fetal Clone H (2%; GE Healthcare, catalog #SH30066.02), bovine brain extract (0.25%; Lonza, catalog #CC-4098), insulin (2.5 μg/mL), IL-13 (10 ng/mL), hydrocortisone (20 nM), transferrin (2.5 μg/mL), triiodothyronine (500 nM), ethanolamine (250 nM), epinephrine (1.5 μM), phosphoethanolamine (250 nM), and retinoic acid (10 nM). Primary human bronchial epithelial cells from a ΔF508 homozygous CF donor (CF-HBE cells; from University of North Carolina Cystic Fibrosis Tissue Procurement Center), grown on Transwell HTS 24-well cell culture inserts (Costar, catalog #3378), were exposed to test agents or controls dissolved in incubation medium. The CF-HBE cells were cultured at 36.5° C. for 48 h before TECC24 recordings were performed in the presence or absence of test agent, a positive control or vehicle (DMSO).
Following incubation, the transwell cell culture inserts containing the test agent or control-treated CF-HBE cells were loaded onto a TECC24 apparatus (TECC v7 or MTECC v2; EP Design) to record the transepithelial voltage (VT) and resistance (TEER) using 4 AgCl electrodes per well configured in current-clamp mode. The apical and basolateral bath solutions both contained (in mM) 140 NaCl, 5 KCl, 2 CaCl2), 1 MgCl2, 10 Hepes, and 10 glucose (adjusted to pH 7.4 with NaOH) […]. To inhibit basal Na+ absorption, the ENaC inhibitor benzamil (10 μM) was added to the bath. Then, the adenylate cyclase activator, forskolin (10 μM), was added to the bath to activate CFTR. The forskolin-stimulated Cl− transport was halted by addition of bumetanide (20 μM), an inhibitor of the basolateral chloride co-transporter NKCC1, to the bath to confirm that the detected signal was chloride dependent. VT and TEER recordings were digitally acquired at routine intervals using TECC or MTECC software (EP Design). VT and TEER were transformed into equivalent transepithelial Cl− current (IEQ), and the Area Under the Curve (AUC) of the IEQ time course between forskolin and bumetanide addition is generated using Excel (Microsoft). Efficacy is expressed as the ratio of the test agent AUC divided by vehicle AUC. EC50s based on AUC are generated using the non-linear regression log(agonist) vs. response function in Prism software (GraphPad) with Hill Slope fixed=1.
If a test agent increased the AUC of the forskolin-stimulated IEQ relative to vehicle in CF-HBE cells, and this increase was inhibited by bumetanide, then the test agent was considered a CFTR corrector.

TECC AUC vs. DMSO @ 3 uM, A (“A” refers to AUC > 5):
CC(C)c1ccccc1-c1nc(NS(=O)(=O)c2cc(N)ccc2F)sc1-c1ccc(F)c(OCC(F)(F)C(C)(C)C)c1 [Example 26, 5-Amino-N-(5-(3-(2,2-difluoro-3,3-dimethylbutoxy)-4-fluorophenyl)-4-(2-isopropylphenyl)thiazol-2-yl)-2-fluorobenzenesulfonamide]
CNc1cccc(S(=O)(=O)Nc2nc(-c3c(C)cccc3C)c(-c3cccc(OCCC(C)(C)C)c3)s2)c1 [Example 27, N-(5-(3-(3,3-Dimethylbutoxy)phenyl)-4-(2,6-dimethylphenyl)thiazol-2-yl)-3-(methylamino)benzenesulfonamide]
Cc1cccc(C)c1-c1nc(NS(=O)(=O)c2cccc(-n3cccn3)c2)sc1-c1cccc(OC2CCC(C)(C)C2)c1 (centres unmarked) [Example 28, N-(5-(3-((3,3-Dimethylcyclopentyl)oxy)phenyl)-4-(2,6-dimethylphenyl)thiazol-2-yl)-3-(1H-pyrazol-1-yl)benzenesulfonamide]
Cc1cccc(C)c1-c1nc(NS(=O)(=O)c2cccc(-c3ccn[nH]3)c2)sc1-c1cccc(OC2CCC(C)(C)C2)c1 (centres unmarked) [Example 29, N-(5-(3-((3,3-Dimethylcyclopentyl)oxy)phenyl)-4-(2,6-dimethylphenyl)thiazol-2-yl)-3-(1H-pyrazol-5-yl)benzenesulfonamide]
CC(C)c1ccccc1-c1nc(NS(=O)(=O)c2cccc(N)n2)sc1-c1cccc(OCCC(C)(C)C)c1 [Example 30, 6-Amino-N-(5-(3-(3,3-Dimethylbutoxy)phenyl)-4-(2-isopropylphenyl)thiazol-2-yl)pyridine-2-sulfonamide]
Cc1cccc(C)c1-c1nc(NS(=O)(=O)c2cccc(N)n2)sc1-c1cc(F)cc(OCCC(C)(C)C)c1 [Example 31, 6-Amino-N-(5-(3-(3,3-dimethylbutoxy)-5-fluorophenyl)-4-(2,6-dimethylphenyl)thiazol-2-yl)pyridine-2-sulfonamide]
Cc1cccc(C)c1-c1nc(NS(=O)(=O)c2ccnc(N)c2)sc1-c1cc(F)cc(OCCC(C)(C)C)c1 [Example 32, 2-Amino-N-(5-(3-(3,3-dimethylbutoxy)-5-fluorophenyl)-4-(2,6-dimethylphenyl)thiazol-2-yl)pyridine-4-sulfonamide]
CC(C)c1ccccc1-c1nc(NS(=O)(=O)c2ccnc(N)c2)sc1-c1cc(F)cc(OCCC(C)(C)C)c1 [Example 33, 2-Amino-N-(5-(3-(3,3-dimethylbutoxy)-5-fluorophenyl)-4-(2-isopropylphenyl)thiazol-2-yl)pyridine-4-sulfonamide]
Cc1cccc(OC(C)C)c1-c1nc(NS(=O)(=O)c2ccnc(N)c2)sc1-c1cc(F)cc(OCCC(C)(C)C)c1 [Example 34, 2-Amino-N-(5-(3-(3,3-dimethylbutoxy)-5-fluorophenyl)-4-(2-isopropoxy-6-methylphenyl)thiazol-2-yl)pyridine-4-sulfonamide]
Cc1cccc(C)c1-c1nc(NS(=O)(=O)c2cccnc2N)sc1-c1cc(F)cc(OCCC(C)(C)C)c1 [Example 35, 2-Amino-N-(5-(3-(3,3-dimethylbutoxy)-5-fluorophenyl)-4-(2,6-dimethylphenyl)thiazol-2-yl)pyridine-3-sulfonamide]
CC(C)c1ccccc1-c1nc(NS(=O)(=O)c2cccc(N[C@H](C(=O)O)C(C)(C)C)n2)sc1-c1cccc(OCCC(C)(C)C)c1 [Example 36, (S)-2-((6-(N-(5-(3-(3,3-Dimethylbutoxy)phenyl)-4-(2-isopropylphenyl)thiazol-2-yl)sulfamoyl)pyridin-2-yl)amino)-3,3-dimethylbutanoic Acid]
